One experiment addresses T1, LTD4 receptor (Cavia porcellus, UniProt Q2NNR5).
T1 construct: from tissue; host or cells: guinea-pig lung membranes
T1 sequence (Q2NNR5 1-340): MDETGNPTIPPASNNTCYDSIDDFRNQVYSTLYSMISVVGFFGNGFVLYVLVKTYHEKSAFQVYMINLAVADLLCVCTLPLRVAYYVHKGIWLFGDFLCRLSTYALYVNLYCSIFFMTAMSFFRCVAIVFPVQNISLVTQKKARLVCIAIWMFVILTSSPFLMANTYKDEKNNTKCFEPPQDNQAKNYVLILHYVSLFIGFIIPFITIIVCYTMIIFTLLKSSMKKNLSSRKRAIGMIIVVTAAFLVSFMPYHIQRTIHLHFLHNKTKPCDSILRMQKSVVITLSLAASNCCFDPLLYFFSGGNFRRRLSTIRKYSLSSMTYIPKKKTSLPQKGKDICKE
The experiment in a line: Receptor binding: direct competition with [^3 H]LTD4 on guinea-pig lung membranes. Conditions: mean ± SD (n) or individual values. The procedure:
It is of importance to investigate the receptor binding properties of leukotriene antagonists in relation to their inhibition of smooth muscle contraction. Receptor binding studies may be performed with guinea-pig lung membranes in a direct competition assay between a leukotrien antagonist and [^3 H]LTD4 for binding to the LTD4 receptor^3,4. A pIC50 value is determined as the negative logarithm of the molar concentration of antagonist inhibiting [^3 H]LTD4 binding by 50%. The pIC50 values for the compounds of the present invention are equal to or higher than those for the reference compound SR3040^5 (see Table I)

Experiment [1] has as its system LTD4-induced bronchoconstriction. The experiment in a line: LTD4-induced bronchoconstriction in anaesthetized guinea-pigs. It is filed as in vivo, guinea-pig. Conditions: Cavia porcellus. The procedure: The leukotriene antagonistic effect was tested in vivo on LTD4 -induced bronchoconstriction in anaesthetized guinea-pigs^3. […] The ED50 values represent the dose inhibiting the leukotriene induced bronchoconstriction by 50%. The ED50 values were calculated by regression analysis of 2-3 doses.

Where [2] appears, read: absence of albumin, read-out: pIC50, binding of [^3 H]LTD4, absence of albumin (converted).
[3] abbreviates: presence of 0.1% human serum albumin, read-out: pIC50, binding of [^3 H]LTD4, presence of albumin (converted).
Setting [4] is: iv, 10 min, i.v., 10 min before bronchoconstriction.
The mark [5] stands for this setting: po, 4 h before bronchoconstriction.
Setting [6] is: po, 24 h before bronchoconstriction.
[7] abbreviates: po, 48 h before bronchoconstriction.

The source of these data is US5945433A, “Quinoline derivatives containing a diol as leukotriene antagonists” (Leo Pharmaceutical Products, Ltd. A/S, priority 1995, dated 1999).

“And” between values parts separate entries of the source, which are not always exact repeats. Identical values can stand only once. Like-named read-outs stand apart in the source and are kept apart here.

The term ED50 denotes the dose that gives a 50% effect, or the effect in half of the subjects.

Regarding `OC[C@H](O)[C@H](Nc1cccc(/C=C/c2ccc3ccc(Cl)cc3n2)c1)c1ccccc1` [Example 3], the IC50 was 5.01 nM and 6.31 nM at LTD4 receptor (setting [2]); 3.98 nM and 2.51 nM at LTD4 receptor (setting [3]). In addition, the ED50 in experiment [1] (setting [4]) came to 0.3 mg/kg; in experiment [1] (setting [5]) it was 0.956 mg/kg; in experiment [1] (setting [6]) it was 20.3 mg/kg.

In the case of `OC[C@@H](O)[C@@H](Nc1cccc(/C=C/c2ccc3ccc(Cl)cc3n2)c1)c1ccccc1` [Example 4], the IC50 on LTD4 receptor (setting [2]) was 3.98 nM; at LTD4 receptor (setting [3]), 1.26 nM and 2 nM. For the same molecule, the ED50 in experiment [1] (setting [4]) was 0.35 mg/kg; in experiment [1] (setting [5]), 3.63 mg/kg; in experiment [1] (setting [6]) it was 8.66 mg/kg; in experiment [1] (setting [7]), over 30 mg/kg.

Consider `OC[C@H](O)[C@H](Nc1cccc(/C=C/c2ccc3ccc(F)cc3n2)c1)c1ccccc1` [Example 5], for which the figures for the IC50 at LTD4 receptor (setting [2]) and on LTD4 receptor (setting [3]) were 3.98 nM and 2.51 nM, respectively.

Take `OC[C@@H](O)[C@@H](Nc1cccc(/C=C/c2ccc3ccc(F)cc3n2)c1)c1ccccc1` [Example 6]: the IC50 at LTD4 receptor (setting [2]) and at LTD4 receptor (setting [3]) was 1.58 nM throughout.

As to `OC[C@H](O)[C@H](Nc1cccc(/C=C/c2ccc3cc(F)c(F)cc3n2)c1)c1ccccc1` [Example 7, (+)-2R,3R-E-3-N-[3-2-(6,7-difluoroquinolin-2-yl)ethenyl]-phenylamino-3-phenyl-1,2-propandiol], the figures for the IC50 on LTD4 receptor (setting [2]) and at LTD4 receptor (setting [3]) were 1.58 nM and 0.794 nM, respectively. In addition, the ED50 is 0.058 mg/kg in experiment [1] (setting [4]); 1.64 mg/kg in experiment [1] (setting [5]); 4.64 mg/kg in experiment [1] (setting [6]); 9.73 mg/kg in experiment [1] (setting [7]); over 30 mg/kg in experiment [1] (po, 72 h before bronchoconstriction).

Consider `OC[C@@H](O)[C@@H](Nc1cccc(/C=C/c2ccc3cc(F)c(F)cc3n2)c1)c1ccccc1` [Example 8], for which the IC50 on LTD4 receptor (setting [2]) is 1 nM; on LTD4 receptor (setting [3]), 0.501 nM. Besides, the ED50 was 0.18 mg/kg in experiment [1] (setting [4]), 14.9 mg/kg in experiment [1] (setting [6]) and over 30 mg/kg in experiment [1] (setting [7]).
